Legend:
Format in all cases: functional
SF-268 = experiment: Cytotoxicity against human SF268 cells assessed as cellular growth at 10 uM by SRB assay
NCI-H522 = experiment: Cytotoxicity against human NCI-H522 cells assessed as cellular growth at 10 uM by SRB assay
UACC-62 = experiment: Cytotoxicity against human UACC62 cells assessed as cellular growth at 10 uM by SRB assay
SR = experiment: Cytotoxicity against human SR cells assessed as cellular growth at 10 uM by SRB assay
OVCAR-5 = experiment: Cytotoxicity against human OVCAR5 cells assessed as cellular growth at 10 uM by SRB assay
HCT-15 = experiment: Cytotoxicity against human HCT15 cells assessed as cellular growth at 10 uM by SRB assay
HT-29 = experiment: Cytotoxicity against human HT-29 cells assessed as cellular growth at 10 uM by SRB assay
NCI-H322M = experiment: Cytotoxicity against human NCI-H322M cells assessed as cellular growth at 10 uM by SRB assay
RPMI-8226 = experiment: Cytotoxicity against human RPMI8226 cells assessed as cellular growth at 10 uM by SRB assay
OVCAR-4 = experiment: Cytotoxicity against human OVCAR4 cells assessed as cellular growth at 10 uM by SRB assay
786-0 = experiment: Cytotoxicity against human 786-0 cells assessed as cellular growth at 10 uM by SRB assay
MDA-MB-435 = experiment: Cytotoxicity against human MDA-MB-435 cells assessed as cellular growth at 10 uM by SRB assay
PC-3 = experiment: Cytotoxicity against human PC3 cells assessed as cellular growth at 10 uM by SRB assay
LOX IMVI = experiment: Cytotoxicity against human LOXIMVI cells assessed as cellular growth at 10 uM by SRB assay
MDA-MB-468 = experiment: Cytotoxicity against human MDA-MB-468 cells assessed as cellular growth at 10 uM by SRB assay
UACC-257 = experiment: Cytotoxicity against human UACC257 cells assessed as cellular growth at 10 uM by SRB assay
SNB-75 = experiment: Cytotoxicity against human SNB75 cells assessed as cellular growth at 10 uM by SRB assay
HOP-62 = experiment: Cytotoxicity against human HOP62 cells assessed as cellular growth at 10 uM by SRB assay
KM12 = experiment: Cytotoxicity against human KM12 cells assessed as cellular growth at 10 uM by SRB assay
HOP-92 = experiment: Cytotoxicity against human HOP92 cells assessed as cellular growth at 10 uM by SRB assay

Row | Compound | Activity (SF-268) | Activity (NCI-H522) | Activity (UACC-62) | Activity (SR) | Activity (OVCAR-5) | Activity (HCT-15) | Activity (HT-29) | Activity (NCI-H322M) | Activity (RPMI-8226) | Activity (OVCAR-4) | Activity (786-0) | Activity (MDA-MB-435) | Activity (PC-3) | Activity (LOX IMVI) | Activity (MDA-MB-468) | Activity (UACC-257) | Activity (SNB-75) | Activity (HOP-62) | Activity (KM12) | Activity (HOP-92)
1 | COc1ccc2[nH]c(C(=O)NCc3ccccc3)cc2c1 | 114.89% | 90.46% | 91.05% | 91.93% | 116.46% | 94.58% | 102.88% | 90.03% | 90.52% | 93.84% | 103.19% | 104.78% | 102.32% | 103.84% | 99.1% | 103.04% | 87.91% | 104.71% | 111.34% | –
2 | CC1(C)CCc2cc(-c3ccn(S(=O)(=O)c4ccccc4Cl)n3)ccc2O1 | 96.38% | 77.85% | 81.14% | 72.9% | 92.37% | 46.19% | 33.37% | 126.42% | 70.97% | – | 71.72% | 98.73% | 70.67% | 83.91% | 63.67% | 99.38% | 99.11% | 96.86% | 62.1% | 49.12%
3 | O=C(Nc1ccc2oc(=O)ccc2c1)c1ccc(-c2ccc(Br)cc2)o1 | 106.9% | 105.32% | 104.75% | 102.2% | 121.34% | 108.33% | 108.43% | 154.44% | 108.92% | – | 95.42% | 112.48% | 111.02% | 105.3% | 122.28% | 114.76% | 104.41% | 106.69% | 114.03% | 97.44%
4 | O=c1/c(=C/c2ccc(Cl)cc2Cl)sc2nc(-c3ccccc3)nn12 | 107.16% | 98.76% | 89.1% | 94.63% | – | 100.58% | 115.55% | 127.05% | 112.43% | – | 103.31% | 106.5% | 106.44% | 95.09% | 112.09% | 112.2% | 116.38% | 120.5% | 101.32% | 104.34%
5 | Cc1ccc(C(=O)/C=C2/Nc3ccc(C)cc3OC2=O)cc1 | 110.95% | 100.47% | 96.95% | 100.89% | 120.4% | 110.94% | 106.8% | 106.47% | 56.86% | 96.74% | 111.25% | 106.99% | 101.93% | 104.53% | 112.98% | 103.75% | 72.48% | 115.04% | 106.74% | –
6 | Cc1ccc2c(c1)N/C(=C/C(=O)c1ccc(Cl)cc1)C(=O)O2 | 105.3% | 81.38% | 93.82% | 110.86% | 106.86% | 99.12% | 105.84% | 114.58% | 64.3% | 88.88% | 117.98% | 105.53% | 87.2% | 100.45% | 107.35% | 97.03% | 86.32% | 113.93% | 102.59% | –
7 | Clc1ccc(-c2nc(-c3cccs3)no2)cc1 | 105.52% | 92.03% | 89.8% | 85.71% | 108.26% | 47.45% | 106.39% | 113.5% | 93.69% | 65.77% | 99.58% | 111.2% | 103.14% | 93.13% | 3.37% | 109.98% | 81.53% | 97.84% | 92.39% | –
8 | Oc1ccccc1-c1nc(-c2cccs2)no1 | 112.74% | 96.76% | 89.11% | – | – | 64.4% | 111.27% | 116.66% | 87.52% | – | 101.07% | 112.76% | 85.02% | 100.28% | 44.64% | 96.64% | 90.2% | 88.78% | 100.01% | 50.86%
9 | c1ccc(-c2nc(-c3cccs3)no2)cc1 | 105.23% | 96.9% | 93.02% | 97.61% | – | 94.44% | 108.03% | 122.94% | 102.22% | – | 107.03% | 113.41% | 96.07% | 99.72% | 83.74% | 103.2% | 105.81% | 98.37% | 99.88% | 75.75%
10 | O=C(Nc1nc2ccc(Cl)cc2s1)c1ccc(Cl)cc1 | 112.46% | 99.64% | 101.97% | 94.31% | 115.32% | 98.99% | 107.3% | 111.02% | 95.05% | 100.6% | 101.53% | 90.92% | 89.01% | 98.77% | 114.39% | 94.31% | 100.74% | 103.16% | 102.62% | –
11 | O=C(Nc1ccc2oc(=O)ccc2c1)c1ccc(-c2ccc(Cl)c(Cl)c2)o1 | 85.02% | 70.34% | 75.33% | 89.98% | 99.5% | 72.06% | 92.94% | 91.94% | 70.14% | 91.52% | 88.1% | 88.86% | 73.29% | 47.73% | 97.57% | 97.36% | 92.21% | 109.12% | 73.78% | –
12 | CC1(C)CC(=O)c2cc3c(N)c(C(=O)Nc4ccccc4Cl)sc3nc2C1 | 122.6% | 102.8% | 100.17% | – | – | 98.89% | 105.6% | 131.48% | 108.32% | – | 102.03% | 105.18% | 105.8% | 117.15% | 110.28% | 104.02% | 118.5% | 116.65% | 117.4% | 103.08%
13 | Nc1c(C(=O)Nc2ccc(Cl)c(Cl)c2)sc2nc(-c3cccs3)ccc12 | 85.77% | 81.53% | 79.48% | 56.67% | 94.42% | 92.1% | 87.42% | 95.09% | 87.02% | 55.74% | 88.45% | 83.41% | 85.43% | 43.3% | 19.37% | 91.24% | 86.26% | 100.28% | 99.94% | –
14 | Cc1ccc(S(=O)(=O)NC2=NC(=O)/C(=C\c3ccccc3)S2)cc1 | 99.46% | 85.18% | 96.39% | 95.9% | 111.88% | 104.84% | 109.22% | 114.86% | 104.04% | 96.34% | 107.82% | 110.94% | 111.74% | 99.09% | 110.23% | 104.4% | 88.62% | 100.56% | 115% | –
15 | O=S(=O)(Oc1ccc(-c2cnc3ccccc3n2)cc1)c1ccccc1 | 98.77% | 78.75% | 78.48% | 85.09% | 101.99% | 98.25% | 78.71% | 107.81% | 87.36% | 96.73% | 92.9% | 96.88% | 89.87% | 95.98% | 84.46% | 100.15% | 108.13% | 106.15% | 111.44% | –
16 | O=C(Nc1ccc(S(=O)(=O)Nc2nccs2)cc1)c1cccs1 | 114.27% | 93.79% | 104.61% | 101.57% | 112.09% | 104.67% | 101.43% | 104.64% | 107.43% | 103.47% | 104.56% | 110.15% | 113.66% | 110.65% | 102.57% | 102.54% | 87.94% | 114.96% | 114.86% | –
17 | Nc1c(C(=O)Nc2ccccc2F)sc2nc3c(cc12)C(=O)CCC3 | 54.87% | -15.17% | 23.7% | 36.7% | 71.12% | 40.21% | 12.19% | 68.76% | 52.02% | – | 41.5% | -25.93% | 23.38% | 54.2% | -15.24% | 66.94% | 13.66% | 42.7% | 24.63% | 53.65%

— ChEMBL document CHEMBL2202954, “The effect of PLC-γ2 inhibitors on the growth of human tumour cells” (2012)
